According to patent US20240158370A1, “CK1 alpha AND DUAL CK1 alpha / GSPT1 DEGRADING COMPOUNDS” (Innovo Therapeutics, Inc., priority 2022, published 2024):

Key:
GSPT1 = GSPT1 (Homo sapiens, UniProt P15170+Q96SW2); experiment: HiBiT degradation assay, GSPT1, Procedure A; assay type: cell-based; design: HiBit-GSPT1 KI HEK293(LgBit) Cells; host or cells: HEK293(LgBit) knock-in cells; details: six hours incubation
Summary of the method: (§1)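 Cells in DMEM + 10% FBS were treated with compound in a ten-point dose response from 10 μM to 0.005 μM (0.1% DMSO) for six hours at 37° C. Lysis with Nano-Glo HiBiT detection reagent followed, with luminescence read. DC50 and Ymin came from a 4-parameter fit.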

CK1α = molecular target: T1, CK1α (Homo sapiens, UniProt P48729+Q96SW2); experiment: HiBiT degradation assay, CK1α, Procedure A; assay type: cell-based; details: six hours incubation
T1 construct: CSNK1A1-HiBit KI HEK293(LgBit) Cells; host or cells: HEK293(LgBit) knock-in cells
T1 sequence (P48729 whole entry): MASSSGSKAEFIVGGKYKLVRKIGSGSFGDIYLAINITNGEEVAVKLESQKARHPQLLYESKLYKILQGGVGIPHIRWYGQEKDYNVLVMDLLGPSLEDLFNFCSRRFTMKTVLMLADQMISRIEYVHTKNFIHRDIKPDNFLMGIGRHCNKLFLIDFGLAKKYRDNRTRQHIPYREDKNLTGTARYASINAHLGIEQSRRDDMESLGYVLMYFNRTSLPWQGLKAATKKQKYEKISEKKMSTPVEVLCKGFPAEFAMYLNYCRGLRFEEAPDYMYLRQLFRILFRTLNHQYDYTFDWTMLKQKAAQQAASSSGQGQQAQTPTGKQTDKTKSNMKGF
T1 sequence (Q96SW2 whole entry): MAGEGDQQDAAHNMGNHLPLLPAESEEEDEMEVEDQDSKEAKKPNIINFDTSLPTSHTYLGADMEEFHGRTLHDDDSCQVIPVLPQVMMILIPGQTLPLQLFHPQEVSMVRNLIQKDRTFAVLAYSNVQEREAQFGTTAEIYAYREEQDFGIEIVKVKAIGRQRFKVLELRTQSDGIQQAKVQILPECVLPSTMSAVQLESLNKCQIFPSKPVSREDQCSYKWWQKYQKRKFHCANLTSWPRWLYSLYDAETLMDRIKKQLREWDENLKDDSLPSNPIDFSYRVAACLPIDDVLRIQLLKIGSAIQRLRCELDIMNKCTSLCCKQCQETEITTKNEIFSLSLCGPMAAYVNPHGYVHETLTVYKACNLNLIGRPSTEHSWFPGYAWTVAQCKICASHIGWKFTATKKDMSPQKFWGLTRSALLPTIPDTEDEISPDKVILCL
T1 sequence (Q16531 whole entry partner): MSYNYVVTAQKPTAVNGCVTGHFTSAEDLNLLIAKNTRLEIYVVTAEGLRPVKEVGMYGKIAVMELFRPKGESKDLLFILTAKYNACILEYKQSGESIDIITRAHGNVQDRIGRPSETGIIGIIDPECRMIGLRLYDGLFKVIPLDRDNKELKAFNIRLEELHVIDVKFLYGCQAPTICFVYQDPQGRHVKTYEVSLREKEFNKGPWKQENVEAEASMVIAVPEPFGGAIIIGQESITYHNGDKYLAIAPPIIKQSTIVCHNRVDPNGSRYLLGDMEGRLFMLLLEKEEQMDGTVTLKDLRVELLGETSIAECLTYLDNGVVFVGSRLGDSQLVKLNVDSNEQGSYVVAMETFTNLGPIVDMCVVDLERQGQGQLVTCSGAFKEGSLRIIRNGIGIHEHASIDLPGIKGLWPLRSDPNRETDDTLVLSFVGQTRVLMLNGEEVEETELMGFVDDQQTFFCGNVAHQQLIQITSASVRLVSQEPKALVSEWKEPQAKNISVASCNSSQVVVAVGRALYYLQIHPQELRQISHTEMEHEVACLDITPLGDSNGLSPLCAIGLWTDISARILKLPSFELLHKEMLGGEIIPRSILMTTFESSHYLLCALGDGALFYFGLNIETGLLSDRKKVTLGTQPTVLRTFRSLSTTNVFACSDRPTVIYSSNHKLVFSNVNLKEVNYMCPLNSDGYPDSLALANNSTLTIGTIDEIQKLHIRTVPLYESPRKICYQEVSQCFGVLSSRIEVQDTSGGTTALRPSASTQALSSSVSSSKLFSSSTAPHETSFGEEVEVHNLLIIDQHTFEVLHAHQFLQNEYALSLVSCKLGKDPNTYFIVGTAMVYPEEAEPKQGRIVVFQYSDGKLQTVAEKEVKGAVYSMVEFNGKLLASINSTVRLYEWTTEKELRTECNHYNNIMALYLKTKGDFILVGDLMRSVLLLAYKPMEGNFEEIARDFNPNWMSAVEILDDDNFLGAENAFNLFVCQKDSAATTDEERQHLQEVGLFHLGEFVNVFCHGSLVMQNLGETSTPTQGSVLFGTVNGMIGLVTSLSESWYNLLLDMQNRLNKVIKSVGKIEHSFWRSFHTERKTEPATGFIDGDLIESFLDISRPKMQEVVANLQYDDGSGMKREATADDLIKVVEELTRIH
Summary of the method: as §1

Sequence of GSPT1 (P15170 whole entry): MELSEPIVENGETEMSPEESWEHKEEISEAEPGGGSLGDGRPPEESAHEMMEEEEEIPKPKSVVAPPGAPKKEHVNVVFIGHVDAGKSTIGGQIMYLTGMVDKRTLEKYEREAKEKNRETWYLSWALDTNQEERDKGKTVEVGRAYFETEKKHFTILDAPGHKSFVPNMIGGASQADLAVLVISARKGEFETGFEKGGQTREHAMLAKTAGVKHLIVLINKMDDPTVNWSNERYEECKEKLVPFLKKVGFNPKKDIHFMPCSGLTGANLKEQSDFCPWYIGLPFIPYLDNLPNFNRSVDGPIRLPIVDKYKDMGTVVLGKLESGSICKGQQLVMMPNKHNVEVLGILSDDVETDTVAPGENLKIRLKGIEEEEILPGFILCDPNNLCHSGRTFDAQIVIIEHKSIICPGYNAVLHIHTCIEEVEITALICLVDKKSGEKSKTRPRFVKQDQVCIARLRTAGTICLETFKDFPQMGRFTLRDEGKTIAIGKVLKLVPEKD
Sequence of GSPT1 (Q96SW2 whole entry): as the sequence (Q96SW2 whole entry) above
Sequence of GSPT1 (Q16531 whole entry partner): as the sequence (Q16531 whole entry partner) above

Compound	DC50 (GSPT1)	GSPT1 Ymin (GSPT1)	CK1α Ymin (CK1α)	DC50 (CK1α)
COc1ccc(Cl)c(-c2c(-c3ccc4c(c3)CN(C3CCC(=O)NC3=O)C4=O)ncn2C)c1 (stereo not drawn) [Example 275]	≥ 25 nM	F (F = >75-100% remaining)	D (D = >10- 25% remaining)	< 25 nM
COc1ccc(-c2c(-c3ccc4c(c3)CN(C3CCC(=O)NC3=O)C4=O)ncn2C)cc1Cl (stereo not drawn) [Example 276]	< 25 nM	F (F = >75-100% remaining)	C (C = 0-10% remaining)	< 25 nM
COc1cccc(-c2c(-c3ccc4c(c3)CN(C3CCC(=O)NC3=O)C4=O)ncn2C)c1Cl (stereo not drawn) [Example 277]	< 25 nM	F (F = >75-100% remaining)	E (E = >25-75% remaining)	< 25 nM
COc1c(Cl)cccc1-c1c(-c2ccc3c(c2)CN(C2CCC(=O)NC2=O)C3=O)ncn1C (stereo not drawn) [Example 278]	≥ 25 nM	F (F = >75-100% remaining)	E (E = >25-75% remaining)	< 25 nM
Cn1cnc(-c2ccc3c(c2)CN(C2CCC(=O)NC2=O)C3=O)c1-c1ccc(C2(C#N)CC2)cc1 (stereo not drawn) [Example 279]	≥ 25 nM	F (F = >75-100% remaining)	D (D = >10- 25% remaining)	< 25 nM
Cn1cnc(-c2ccc3c(c2)CN(C2CCC(=O)NC2=O)C3=O)c1-c1cccc(C(F)(F)F)c1 (stereo not drawn) [Example 280]	≥ 25 nM	F (F = >75-100% remaining)	E (E = >25-75% remaining)	< 25 nM
Cn1cnc(-c2ccc3c(c2)CN(C2CCC(=O)NC2=O)C3=O)c1-c1ccccc1C(F)(F)F (stereo not drawn) [Example 282]	≥ 25 nM	F (F = >75-100% remaining)	E (E = >25-75% remaining)	< 25 nM
Cn1cnc(-c2ccc3c(c2)CN(C2CCC(=O)NC2=O)C3=O)c1-c1ccc(Cl)c(Cl)c1 (stereo not drawn) [Example 283]	≥ 25 nM	F (F = >75-100% remaining)	E (E = >25-75% remaining)	< 25 nM
Cn1cnc(-c2ccc3c(c2)CN(C2CCC(=O)NC2=O)C3=O)c1-c1cccc(Cl)c1Cl (stereo not drawn) [Example 284]	≥ 25 nM	F (F = >75-100% remaining)	E (E = >25-75% remaining)	< 25 nM
Cn1cnc(-c2ccc3c(c2)CN(C2CCC(=O)NC2=O)C3=O)c1-c1cc(Cl)ccc1Cl (stereo not drawn) [Example 285]	< 25 nM	F (F = >75-100% remaining)	E (E = >25-75% remaining)	< 25 nM
Cn1cnc(-c2ccc3c(c2)CN(C2CCC(=O)NC2=O)C3=O)c1-c1ccc(Cl)cc1Cl (stereo not drawn) [Example 286]	< 25 nM	E (E = >25-75% remaining)	D (D = >10- 25% remaining)	< 25 nM
Cn1cnc(-c2ccc3c(c2)CN(C2CCC(=O)NC2=O)C3=O)c1-c1ccc(N2CCCC2)cc1 (stereo not drawn) [Example 288]	< 25 nM	E (E = >25-75% remaining)	C (C = 0-10% remaining)	< 25 nM
CN(C)C(=O)c1ccc(-c2c(-c3ccc4c(c3)CN(C3CCC(=O)NC3=O)C4=O)ncn2C)cc1 (stereo not drawn) [Example 289]	≥ 25 nM	F (F = >75-100% remaining)	C (C = 0-10% remaining)	≥ 25 nM
CN(C)C(=O)c1cccc(-c2c(-c3ccc4c(c3)CN(C3CCC(=O)NC3=O)C4=O)ncn2C)c1 (stereo not drawn) [Example 290]	≥ 25 nM	F (F = >75-100% remaining)	D (D = >10- 25% remaining)	≥ 25 nM
Cn1cnc(-c2ccc3c(c2)CN(C2CCC(=O)NC2=O)C3=O)c1-c1cccc(-c2ccccc2)c1 (stereo not drawn) [Example 291]	≥ 25 nM	F (F = >75-100% remaining)	E (E = >25-75% remaining)	< 25 nM
Cn1cnc(-c2ccc3c(c2)CN(C2CCC(=O)NC2=O)C3=O)c1-c1ccc(F)c(C(F)(F)F)c1 (stereo not drawn) [Example 293]	< 25 nM	F (F = >75-100% remaining)	E (E = >25-75% remaining)	≥ 25 nM
Cn1cnc(-c2ccc3c(c2)CN(C2CCC(=O)NC2=O)C3=O)c1-c1ccc(-c2ccccc2)cc1 (stereo not drawn) [Example 294]	< 25 nM	E (E = >25-75% remaining)	D (D = >10- 25% remaining)	< 25 nM
Cn1cnc(-c2ccc3c(c2)CN(C2CCC(=O)NC2=O)C3=O)c1-c1cccc(CN2CCCC2)c1 (stereo not drawn) [Example 295]	≥ 25 nM	F (F = >75-100% remaining)	D (D = >10- 25% remaining)	≥ 25 nM

Compound	DC50 (GSPT1)	GSPT1 Ymin (GSPT1)	CK1α Ymin (CK1α)	DC50 (CK1α)
Cn1cnc(-c2ccc3c(c2)CN(C2CCC(=O)NC2=O)C3=O)c1-c1cccc(N2CCCCC2)c1 (stereo not drawn) [Example 296]	≥ 25 nM	F (F = >75-100% remaining)	E (E = >25-75% remaining)	< 25 nM
Cn1cnc(-c2ccc3c(c2)CN(C2CCC(=O)NC2=O)C3=O)c1-c1cccc(N2CCOCC2)c1 (stereo not drawn) [Example 297]	≥ 25 nM	F (F = >75-100% remaining)	E (E = >25-75% remaining)	< 25 nM
Cn1cnc(-c2ccc3c(c2)CN(C2CCC(=O)NC2=O)C3=O)c1-c1ccc(-c2ccc(O)cc2)cc1 (stereo not drawn) [Example 298]	≥ 25 nM	F (F = >75-100% remaining)	E (E = >25-75% remaining)	< 25 nM
Cn1cnc(-c2ccc3c(c2)CN(C2CCC(=O)NC2=O)C3=O)c1-c1ccc(-c2ccc(C#N)cc2)cc1 (stereo not drawn) [Example 299]	≥ 25 nM	F (F = >75-100% remaining)	C (C = 0-10% remaining)	< 25 nM
Cn1cnc(-c2ccc3c(c2)CN(C2CCC(=O)NC2=O)C3=O)c1-c1ccc(C(=O)NC2CCCC2)cc1 (stereo not drawn) [Example 300]	≥ 25 nM	F (F = >75-100% remaining)	D (D = >10- 25% remaining)	≥ 25 nM
Cn1cnc(-c2ccc3c(c2)CN(C2CCC(=O)NC2=O)C3=O)c1-c1cccc2c1CCC2 (stereo not drawn) [Example 301]	≥ 25 nM	F (F = >75-100% remaining)	D (D = >10- 25% remaining)	< 25 nM
Cn1cnc(-c2ccc3c(c2)CN(C2CCC(=O)NC2=O)C3=O)c1-c1cccc(C(=O)NC2CCCCC2)c1 (stereo not drawn) [Example 302]	≥ 25 nM	F (F = >75-100% remaining)	E (E = >25-75% remaining)	≥ 25 nM
COc1cccc(COc2cccc(-c3c(-c4ccc5c(c4)CN(C4CCC(=O)NC4=O)C5=O)ncn3C)c2)c1 (stereo not drawn) [Example 303]	≥ 25 nM	F (F = >75-100% remaining)	E (E = >25-75% remaining)	< 25 nM
Cn1cnc(-c2ccc3c(c2)CN(C2CCC(=O)NC2=O)C3=O)c1-c1ccc(OCc2ccccc2)c(Cl)c1 (stereo not drawn) [Example 304]	< 25 nM	F (F = >75-100% remaining)	D (D = >10- 25% remaining)	< 25 nM
Cn1cnc(-c2ccc3c(c2)CN(C2CCC(=O)NC2=O)C3=O)c1-c1ccc(-c2ccncc2)cc1 (stereo not drawn) [Example 305]	< 25 nM	F (F = >75-100% remaining)	C (C = 0-10% remaining)	< 25 nM
Cn1cnc(-c2ccc3c(c2)CN(C2CCC(=O)NC2=O)C3=O)c1-c1ccc(S(C)(=O)=O)cc1 (stereo not drawn) [Example 306]	≥ 25 nM	E (E = >25-75% remaining)	E (E = >25-75% remaining)	≥ 25 nM
Cn1cnc(-c2ccc3c(c2)CN(C2CCC(=O)NC2=O)C3=O)c1-c1ccc(C(=O)NCc2ccccc2)c(Cl)c1 (stereo not drawn) [Example 307]	< 25 nM	F (F = >75-100% remaining)	D (D = >10- 25% remaining)	≥ 25 nM
Cn1cnc(-c2ccc3c(c2)CN(C2CCC(=O)NC2=O)C3=O)c1-c1ccc(Oc2cccnc2)cc1 (stereo not drawn) [Example 308]	≥ 25 nM	F (F = >75-100% remaining)	D (D = >10- 25% remaining)	< 25 nM
Cn1cnc(-c2ccc3c(c2)CN(C2CCC(=O)NC2=O)C3=O)c1-c1ccc(CN2CCOCC2)cc1 (stereo not drawn) [Example 309]	< 25 nM	F (F = >75-100% remaining)	D (D = >10- 25% remaining)	< 25 nM
Cn1cnc(-c2ccc3c(c2)CN(C2CCC(=O)NC2=O)C3=O)c1-c1ccc(OCc2ccccc2)cc1 (stereo not drawn) [Example 310]	≥ 25 nM	F (F = >75-100% remaining)	D (D = >10- 25% remaining)	< 25 nM
Cn1cnc(-c2ccc3c(c2)CN(C2CCC(=O)NC2=O)C3=O)c1-c1ccc(COc2ccccc2)cc1 (stereo not drawn) [Example 311]	< 25 nM	E (E = >25-75% remaining)	D (D = >10- 25% remaining)	< 25 nM
CN1CCN(Cc2cccc(-c3c(-c4ccc5c(c4)CN(C4CCC(=O)NC4=O)C5=O)ncn3C)c2)CC1 (stereo not drawn) [Example 312]	≥ 25 nM	F (F = >75-100% remaining)	D (D = >10- 25% remaining)	≥ 25 nM
CN1CCN(Cc2ccc(-c3c(-c4ccc5c(c4)CN(C4CCC(=O)NC4=O)C5=O)ncn3C)cc2)CC1 (stereo not drawn) [Example 313]	≥ 25 nM	F (F = >75-100% remaining)	D (D = >10- 25% remaining)	≥ 25 nM
